Where a SMILES comes first, the peptide text is derived from it.
Assays:
Caki-1 = type: cell-based, human; details: Caki-1; for Anti-cancer activity (% relative to wild-type peptide) / Decrease in cell survival rate (% relative to wild-type peptide): wild-type peptide = 100%
Protocol: A total of 3×10^3 cells were inoculated per well on a 96 well plate and cultured in a medium containing 10% FBS for 24 hours, and incubated with 100 μl of a peptide having a gradual increase in concentration at 37° C. for 48 to 72 hours. The survival rate of the cells was measured by using WST-8 solution (Cell Count Reagent SF; Nacalai Tesque, Inc.).
(§1) Respective variant peptides were subjected to cell viability assay. Specifically, Caki-1 (American Type Culture Collection (Manassas, Va.) was inoculated in a total amount of 3×10^3 cells per well on a 96 well plate (Nunc™); the cells were cultured in a medium (DMEM (Tesque, Inc.) containing 10% FBS (fetal bovine serum; Biowest)) for 24 hours and incubated with 100 μl of a peptide having a gradual increase in concentration at 37° C. for 48 to 72 hours. The cell survival rate was measured by using WST-8 solution (Cell Count Reagent SF; Nacalai Tesque, Inc.) and compared with that of the wild-type Antp-TPR peptide.
as §1, with “medium” for “medium (DMEM (Tesque, Inc.)”, “FBS” for “FBS (fetal bovine serum; Biowest))”

cancer cells = assay: Cell viability assay, summary statements on cancer cells; type: cell-based; details: single mutation in TPR or Antp region of Antp-TPR

## CC[C@H](C)[C@H](NC(=O)[C@H](CCCNC(=N)N)NC(=O)[C@H](C)NC(=O)[C@H](Cc1ccc(O)cc1)NC(=O)[C@H](C)NC(=O)[C@H](CCCCN)NC(=O)[C@H](CCCCN)NC(=O)[C@H](CCCCN)NC(=O)[C@H](Cc1c[nH]c2ccccc12)NC(=O)[C@H](CCCCN)NC(=O)[C@H](CCSC)NC(=O)[C@H](CCCNC(=N)N)NC(=O)[C@H](CCCNC(=N)N)NC(=O)[C@H](CC(N)=O)NC(=O)[C@H](CCC(N)=O)NC(=O)[C@H](Cc1ccccc1)NC(=O)[C@H](Cc1ccc(O)cc1)NC(=O)[C@@H](NC(=O)[C@H](CCCCN)NC(=O)[C@@H](NC(=O)[C@H](CCC(N)=O)NC(=O)[C@@H](N)CCCNC(=N)N)[C@@H](C)CC)[C@@H](C)CC)C(=O)NCC(=O)N[C@@H](CC(N)=O)C(=O)N[C@@H](CO)C(=O)N[C@@H](Cc1ccc(O)cc1)C(=O)N[C@@H](Cc1ccccc1)C(=O)N[C@@H](CCCCN)C(=O)O [Antp W6Y-TPR] (H-RQIKIYFQNRRMKWKKKAYARIGNSYFK-OH; N-terminus and C-terminus assumed)
Caki-1
  Anti-cancer activity (% relative to wild-type peptide): 32.99%
  Decrease in cell survival rate (% relative to wild-type peptide): 15.14%
Cancer cells
  effect compared with the wild-type protein (summary of mutations): effective but with an effect lower than the wild-type protein

## CC[C@H](C)[C@H](NC(=O)[C@H](CCCNC(=N)N)NC(=O)[C@H](C)NC(=O)[C@H](Cc1ccc(O)cc1)NC(=O)[C@H](C)NC(=O)[C@H](CCCCN)NC(=O)[C@H](CCCCN)NC(=O)[C@H](CCCCN)NC(=O)[C@H](Cc1c[nH]c2ccccc12)NC(=O)[C@H](CCCCN)NC(=O)[C@H](CCSC)NC(=O)[C@H](CCCNC(=N)N)NC(=O)[C@H](CCCNC(=N)N)NC(=O)[C@H](CC(N)=O)NC(=O)[C@H](CCC(N)=O)NC(=O)[C@H](Cc1ccccc1)NC(=O)[C@H](Cc1c[nH]c2ccccc12)NC(=O)[C@@H](NC(=O)[C@H](CCCCN)NC(=O)[C@H](CC(C)C)NC(=O)[C@H](CCC(N)=O)NC(=O)[C@@H](N)CCCNC(=N)N)[C@@H](C)CC)C(=O)NCC(=O)N[C@@H](CC(N)=O)C(=O)N[C@@H](CO)C(=O)N[C@@H](Cc1ccc(O)cc1)C(=O)N[C@@H](Cc1ccccc1)C(=O)N[C@@H](CCCCN)C(=O)O [Antp 13L-TPR] (H-RQLKIWFQNRRMKWKKKAYARIGNSYFK-OH; N-terminus and C-terminus assumed)
Caki-1
  Anti-cancer activity (% relative to wild-type peptide): 69.12%
  Decrease in cell survival rate (% relative to wild-type peptide): 27.91%
Cancer cells
  effect compared with the wild-type protein (summary of mutations): effective but with an effect lower than the wild-type protein

## CC[C@H](C)[C@H](NC(=O)[C@H](CCCNC(=N)N)NC(=O)[C@H](C)NC(=O)[C@H](Cc1ccc(O)cc1)NC(=O)[C@H](C)NC(=O)[C@H](CCCCN)NC(=O)[C@H](CCCCN)NC(=O)[C@H](CCCCN)NC(=O)[C@H](Cc1c[nH]c2ccccc12)NC(=O)[C@H](CCCCN)NC(=O)[C@H](CCSC)NC(=O)[C@H](CCCNC(=N)N)NC(=O)[C@H](CCCNC(=N)N)NC(=O)[C@H](CC(N)=O)NC(=O)[C@H](CCC(N)=O)NC(=O)[C@H](Cc1ccccc1)NC(=O)[C@H](Cc1c[nH]c2ccccc12)NC(=O)[C@@H](NC(=O)[C@H](CCCNC(=N)N)NC(=O)[C@@H](NC(=O)[C@H](CCC(N)=O)NC(=O)[C@@H](N)CCCNC(=N)N)[C@@H](C)CC)[C@@H](C)CC)C(=O)NCC(=O)N[C@@H](CC(N)=O)C(=O)N[C@@H](CO)C(=O)N[C@@H](Cc1ccc(O)cc1)C(=O)N[C@@H](Cc1ccccc1)C(=O)N[C@@H](CCCCN)C(=O)O [Antp K4R-TPR] (H-RQIRIWFQNRRMKWKKKAYARIGNSYFK-OH; N-terminus and C-terminus assumed)
Caki-1
  killing effect compared with the wild-type peptide: stronger than that of the wild-type peptide
  Anti-cancer activity (% relative to wild-type peptide): 109.86%
  Decrease in cell survival rate (% relative to wild-type peptide): 573.28%
Cancer cells
  effect compared with the wild-type protein (summary of mutations): effect higher than the wild-type protein

## CC[C@H](C)[C@H](NC(=O)[C@H](CCCNC(=N)N)NC(=O)[C@H](C)NC(=O)[C@H](Cc1ccc(O)cc1)NC(=O)[C@H](C)NC(=O)[C@H](CCCCN)NC(=O)[C@H](CCCCN)NC(=O)[C@H](CCCCN)NC(=O)[C@H](Cc1c[nH]c2ccccc12)NC(=O)[C@H](CCCCN)NC(=O)[C@H](CCSC)NC(=O)[C@H](CCCNC(=N)N)NC(=O)[C@H](CCCNC(=N)N)NC(=O)[C@H](CCC(N)=O)NC(=O)[C@H](CCC(N)=O)NC(=O)[C@H](Cc1ccccc1)NC(=O)[C@H](Cc1c[nH]c2ccccc12)NC(=O)[C@@H](NC(=O)[C@H](CCCCN)NC(=O)[C@@H](NC(=O)[C@H](CCC(N)=O)NC(=O)[C@@H](N)CCCNC(=N)N)[C@@H](C)CC)[C@@H](C)CC)C(=O)NCC(=O)N[C@@H](CC(N)=O)C(=O)N[C@@H](CO)C(=O)N[C@@H](Cc1ccc(O)cc1)C(=O)N[C@@H](Cc1ccccc1)C(=O)N[C@@H](CCCCN)C(=O)O [Antp N9Q-TPR] (H-RQIKIWFQQRRMKWKKKAYARIGNSYFK-OH; N-terminus and C-terminus assumed)
Caki-1
  killing effect compared with the wild-type peptide: stronger than that of the wild-type peptide
  Anti-cancer activity (% relative to wild-type peptide): 110.59%
  Decrease in cell survival rate (% relative to wild-type peptide): 881.03%
Cancer cells
  effect compared with the wild-type protein (summary of mutations): effect higher than the wild-type protein

## CC[C@H](C)[C@H](NC(=O)[C@H](CCCNC(=N)N)NC(=O)[C@H](C)NC(=O)[C@H](Cc1ccc(O)cc1)NC(=O)[C@H](C)NC(=O)[C@H](CCCCN)NC(=O)[C@H](CCCCN)NC(=O)[C@H](CCCCN)NC(=O)[C@H](Cc1c[nH]c2ccccc12)NC(=O)[C@H](CCCCN)NC(=O)[C@H](CCSC)NC(=O)[C@H](CCCNC(=N)N)NC(=O)[C@H](CCCNC(=N)N)NC(=O)[C@H](CC(N)=O)NC(=O)[C@H](CCC(N)=O)NC(=O)[C@H](Cc1ccccc1)NC(=O)[C@H](Cc1c[nH]c2ccccc12)NC(=O)[C@@H](NC(=O)[C@H](CCCCN)NC(=O)[C@@H](NC(=O)[C@H](CCC(N)=O)NC(=O)[C@@H](N)CCCCN)[C@@H](C)CC)[C@@H](C)CC)C(=O)NCC(=O)N[C@@H](CC(N)=O)C(=O)N[C@@H](CO)C(=O)N[C@@H](Cc1ccc(O)cc1)C(=O)N[C@@H](Cc1ccccc1)C(=O)N[C@@H](CCCCN)C(=O)O [Antp-R1K-TPR] (H-KQIKIWFQNRRMKWKKKAYARIGNSYFK-OH; N-terminus and C-terminus assumed)
Caki-1
  Anti-cancer activity (% relative to wild-type peptide): 64.10%
  Decrease in cell survival rate (% relative to wild-type peptide): 24.98%
Cancer cells
  effect compared with the wild-type protein (summary of mutations): effective but with an effect lower than the wild-type protein

## CC[C@H](C)[C@H](NC(=O)[C@H](CCCNC(=N)N)NC(=O)[C@H](C)NC(=O)[C@H](Cc1ccc(O)cc1)NC(=O)[C@H](C)NC(=O)[C@H](CCCCN)NC(=O)[C@H](CCCCN)NC(=O)[C@H](CCCCN)NC(=O)[C@H](Cc1c[nH]c2ccccc12)NC(=O)[C@H](CCCCN)NC(=O)[C@H](CCSC)NC(=O)[C@H](CCCNC(=N)N)NC(=O)[C@H](CCCNC(=N)N)NC(=O)[C@H](CC(N)=O)NC(=O)[C@H](CCC(N)=O)NC(=O)[C@H](Cc1ccc(O)cc1)NC(=O)[C@H](Cc1c[nH]c2ccccc12)NC(=O)[C@@H](NC(=O)[C@H](CCCCN)NC(=O)[C@@H](NC(=O)[C@H](CCC(N)=O)NC(=O)[C@@H](N)CCCNC(=N)N)[C@@H](C)CC)[C@@H](C)CC)C(=O)NCC(=O)N[C@@H](CC(N)=O)C(=O)N[C@@H](CO)C(=O)N[C@@H](Cc1ccc(O)cc1)C(=O)N[C@@H](Cc1ccccc1)C(=O)N[C@@H](CCCCN)C(=O)O [Antp F7Y-TPR] (H-RQIKIWYQNRRMKWKKKAYARIGNSYFK-OH; N-terminus and C-terminus assumed)
Caki-1
  Anti-cancer activity (% relative to wild-type peptide): 29.86%
  Decrease in cell survival rate (% relative to wild-type peptide): 14.56%
Cancer cells
  effect compared with the wild-type protein (summary of mutations): effective but with an effect lower than the wild-type protein

## CC[C@H](C)[C@H](NC(=O)[C@H](CCCNC(=N)N)NC(=O)[C@H](C)NC(=O)[C@H](Cc1ccc(O)cc1)NC(=O)[C@H](C)NC(=O)[C@H](CCCCN)NC(=O)[C@H](CCCCN)NC(=O)[C@H](CCCCN)NC(=O)[C@H](Cc1c[nH]c2ccccc12)NC(=O)[C@H](CCCCN)NC(=O)[C@H](CS)NC(=O)[C@H](CCCNC(=N)N)NC(=O)[C@H](CCCNC(=N)N)NC(=O)[C@H](CC(N)=O)NC(=O)[C@H](CCC(N)=O)NC(=O)[C@H](Cc1ccccc1)NC(=O)[C@H](Cc1c[nH]c2ccccc12)NC(=O)[C@@H](NC(=O)[C@H](CCCCN)NC(=O)[C@@H](NC(=O)[C@H](CCC(N)=O)NC(=O)[C@@H](N)CCCNC(=N)N)[C@@H](C)CC)[C@@H](C)CC)C(=O)NCC(=O)N[C@@H](CC(N)=O)C(=O)N[C@@H](CO)C(=O)N[C@@H](Cc1ccc(O)cc1)C(=O)N[C@@H](Cc1ccccc1)C(=O)N[C@@H](CCCCN)C(=O)O [Antp M12C-TPR] (H-RQIKIWFQNRRCKWKKKAYARIGNSYFK-OH; N-terminus and C-terminus assumed)
Caki-1
  killing effect compared with the wild-type peptide: stronger than that of the wild-type peptide
  Anti-cancer activity (% relative to wild-type peptide): 102.68%
  Decrease in cell survival rate (% relative to wild-type peptide): 128.91%
Cancer cells
  effect compared with the wild-type protein (summary of mutations): effect higher than the wild-type protein

Source: patent US8546320B2, “Hsp9O-targeted anti-cancer chimeric peptide” (Kyoto University, priority 2008, dated 2013)
